Data taken from PubChem BioAssay (NCI).
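Grown in 96-well plates, cells were treated for 48 hours with each compound at five concentrations. Insufficient inhibition: endpoint recorded as highest concentration tested. GI50 marks 50% less growth. TGI: total growth inhibition.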

Assays:
Experiment in all cases: growth of human tumour cells (NCI), 48 h
A549 NSCLC = tested on: A549 NSCLC
RPMI-8226 leukemia = tested on: RPMI-8226 leukemia
COLO 205 colon = tested on: COLO 205 colon
UO-31 renal = tested on: UO-31 renal
KM12 colon = tested on: KM12 colon
HCT-15 colon = tested on: HCT-15 colon
SK-OV-3 ovarian = tested on: SK-OV-3 ovarian
MCF7 breast = tested on: MCF7 breast
MDA-MB-435 = tested on: MDA-MB-435
RXF 393 renal = tested on: RXF 393 renal

Compound	TGI (A549 NSCLC) [µM]	TGI (RPMI-8226 leukemia) [µM]	TGI (COLO 205 colon) [µM]	TGI (UO-31 renal) [µM]	TGI (KM12 colon) [µM]	TGI (HCT-15 colon) [µM]	TGI (SK-OV-3 ovarian) [µM]	GI50 (MCF7 breast) [µM]	TGI (MCF7 breast) [µM]	GI50 (A549 NSCLC) [µM]	GI50 (RPMI-8226 leukemia) [µM]	GI50 (COLO 205 colon) [µM]	GI50 (UO-31 renal) [µM]	GI50 (KM12 colon) [µM]	GI50 (HCT-15 colon) [µM]	GI50 (MDA-MB-435) [µM]	TGI (MDA-MB-435) [µM]	GI50 (SK-OV-3 ovarian) [µM]	TGI (RXF 393 renal) [µM]	GI50 (RXF 393 renal) [µM]
CCOCN1COCN(C)C1=O	> 100	> 100	> 100	> 100	> 100	> 100	> 100													
O=C(O)c1cccc(COc2ccc([N+](=O)[O-])cc2Cl)c1	> 100	> 100	> 100	> 100	> 100	> 100	> 100	> 100	> 100	> 100	> 100	> 100	> 100	> 100	> 100	> 100	> 100	> 100		
CN(C(=O)c1ccc([N+](=O)[O-])cc1)c1ccccc1	> 100	> 100	> 100	> 100	> 100	> 100	> 100												> 100	
Cc1ccccc1C1=[N+]([O-])c2ccc(Cl)cc2C1=O	34.2	9.37	20.2	31.2	27.1	31.9	52.6												34.9	
O=C(/C(=C\c1c(-c2ccccc2)[nH]c2ccccc12)S(=O)(=O)c1ccccc1)c1ccccc1	> 100	> 100	> 100	> 100	> 100		> 100	5.63	> 100	35	7.61	7.8	> 100	5.06		3.94	> 100	7.63	> 100	97.1
N#CC(=Nc1ccccc1N(C(=O)c1ccccc1)C(=O)c1ccccc1)c1ccccc1	> 48.8	> 81.4	> 64.6	> 100	> 70.9	> 90.3	> 100												> 39.3	
CN(C)CCNCCN	> 100	> 100	> 100	> 100	> 100	> 100	> 100		> 100								> 100			
O=[N+]([O-])c1cccc(C2=NOC(C3CCCCC3)C2)c1 (centres undefined)	> 100		> 100	> 100	> 100	> 100	> 100													
c1coc(-c2c3ccc(=[N+]4CCCCC4)cc-3oc3cc(N4CCCCC4)ccc23)c1				0.336			0.819						0.0353					0.246	0.228	0.0437
Cc1cc2c(c(C(N)=O)c1C)-c1ccccc1C2=O	> 100	> 100	> 100	> 100	> 100	> 100	> 100												> 100	
COC(c1ccc(C(C)(C)C)cc1)(c1ccc(C(C)(C)C)cc1)c1ccc(C(C)(C)C)cc1	> 100	> 100	> 100	> 100	> 100	> 100			> 100								> 100			
